Article PMC6264186, “Development of a Highly Sensitive and Specific Immunoassay for Determining Chrysoidine, A Banned Dye, in Soybean Milk Film” (Molecules, 2011)
≈ marks a conversion by molar mass, not a printed value. Values belong to the compound of their own block, whether it stands above or below them.

Tests used:
[1] = test system: polyclonal Ab 2 (antibody to chrysoidine, from Hapten 2); test: indirect competitive ELISA (icELISA) with polyclonal Ab 2; type: binding, New Zealand white rabbits; settings: for Cross-reactivity / IC50: polyclonal Ab 2, coating antigen Hapten 1-OVA; for Cross-reactivity: CR = IC50(chrysoidine)/IC50(interferent) x 100
Description: Specificity of the optimized assay was tested by measuring the cross-reactivity using a group of structurally related dyes. Twenty-four compounds were selected for testing the cross-reactivity (CR) (Table 1). The CR was calculated as follows: CR(%) = [IC50(chrysoidine) / IC50(interferent)] × 100.

[2] = test system: Ab 1 (antibody to chrysoidine, from Hapten 1); test: indirect competitive ELISA (icELISA) with polyclonal Ab 1
Description: Checkerboard assays, in which antibodies were titrated against various amounts of the coating antigen, were used to measure the reactivity of antibodies and to select an appropriate antigen coating and antibody dilutions for competitive indirect assays. […] The concentrations of the antibodies and the coating antigen chosen were further optimized.
The procedure for the competitive assay was as follows. Microtiter plates were coated with hapten-OVA (100–1000 ng/mL, 100 µL/well) in carbonate-bicarbonate buffer (50 mM, pH 9.6) by overnight incubation at 4 °C. The plates were blocked with blocking solution by incubation for 3 h. Serial dilution of the analyte in methanol-PBST (1:9, v:v, 50 µL/well) were added, followed by 50 µL/well of antibody diluted (1/1,000–1/10,000) with PBST solution. After incubation for about 30–60 min, 100 µL/well of a diluted (1/10,000) goat anti-rabbit IgG-HRP was added. The mixture was incubated for 60 min, and 100 µL/well of a TMB solution was added. The reaction was stopped after an appropriate time (typically 8 min) by adding 10% (v:v) H2SO4 (50 µL), and the absorbance was read at 450 nm.

[3] = test system: polyclonal Ab 2 (antibody to chrysoidine, from Hapten 2); test: indirect competitive ELISA (icELISA) with polyclonal Ab 2; type: binding, New Zealand white rabbits; settings: coating antigen Hapten 2-OVA 17 ng/mL, Ab 2 dilution 10000 (homologous)
[4] = coating antigen Hapten 1-OVA 20 ng/mL, Ab 1 dilution 8000 (homologous)
[5] = coating antigen Hapten 2-OVA 20 ng/mL, Ab 1 dilution 20000 (heterologous)
[6] = coating antigen Hapten 1-OVA 20 ng/mL, Ab 2 dilution 4000 (heterologous)

Compound: O=[N+]([O-])c1ccc(N=Nc2c(O)ccc3ccccc23)cc1 [1-(4-nitrophenyl-azo)-2-naphthol]
- Cross-reactivity [1]: ≤0.01%
- IC50 ([1]; class symbol ND): > 13.3 µM

Compound: O=C(O)C1=NN(c2ccc(S(=O)(=O)O)cc2)C(=O)C1/N=N/c1ccc(S(=O)(=O)O)cc1 (centres unmarked) [Acid Yellow 23]
- IC50 [1]: 3.05 µM
- Cross-reactivity [1]: 0.04%

Compound: COc1cc(S(=O)(=O)O)c(C)cc1/N=N/c1c(O)ccc2cc(S(=O)(=O)O)ccc12 [Allura Red]
- Cross-reactivity [1]: ≤0.01%
- IC50 ([1]; class symbol ND): > 13.3 µM

Compound: O=S(=O)(O)c1ccc2c(/N=N/c3ccc(S(=O)(=O)O)c4ccccc34)c(O)c(S(=O)(=O)O)cc2c1 [Amaranth]
- Cross-reactivity [1]: ≤0.01%
- IC50 ([1]; class symbol ND): > 13.3 µM

Compound: CN(C)c1ccc(C(=N)c2ccc(N(C)C)cc2)cc1 [Auramine O]
- IC50 [1]: 0.798 µM
- Cross-reactivity [1]: 0.2%

Compound: O=S(=O)(O)c1ccc(/N=N/c2cc(S(=O)(=O)O)c3ccccc3c2O)c2ccccc12 [Azorubine]
- Cross-reactivity [1]: ≤0.01%
- IC50 ([1]; class symbol ND): > 13.3 µM

Compound: CCN(Cc1cccc(S(=O)(=O)O)c1)c1ccc(C(=C2C=CC(=[N+](CC)Cc3cccc(S(=O)(=O)O)c3)C=C2)c2ccc(O)cc2S(=O)(=O)[O-])cc1 [Brilliant blue-85]
- Cross-reactivity [1]: ≤0.01%
- IC50 ([1]; class symbol ND): > 13.3 µM

Compound: Cc1c(C(=O)O)c(O)cc2c1C(=O)c1c(O)c([C@@H]3O[C@H](CO)[C@@H](O)[C@H](O)[C@H]3O)c(O)c(O)c1C2=O [Carminic acid]
- Cross-reactivity [1]: ≤0.01%
- IC50 ([1]; class symbol ND): > 13.3 µM

Compound: Nc1ccc(/N=N/c2ccccc2)c(N)c1 [Chrysoidine]
- IC50 [2, 4]: 7.4 ng/mL (≈ 0.0349 µM)
- LOD (10% inhibitory concentration) [2, 4]: 0.8 ng/mL
- IC50 [2, 5]: 1.6 ng/mL (≈ 0.00754 µM)
- LOD (10% inhibitory concentration) [2, 5]: 0.4 ng/mL
- IC50 [3]: 10.6 ng/mL (≈ 0.0499 µM)
- LOD (10% inhibitory concentration) [3]: 3.8 ng/mL
- IC50 (50% inhibitory concentration) [1, 6]: 0.33 ng/mL (≈ 0.00155 µM)
- LOD (10% inhibitory concentration) [1, 6]: 0.04 ng/mL
- LOD (10% inhibitory concentration) ([1]; coating antigen Hapten 1-OVA 20 ng/mL, Ab 2 dilution 4000 (heterologous), listed as chrysoidine): ≤ 0.04 ng/mL
- limit of quantitation (LOQ, 20%-80% inhibitory concentration) ([1]; coating antigen Hapten 1-OVA, Ab 2 (heterologous)): 0.09 to 4.9 ng/mL
- IC50 [1]: 0.00133 µM
- Cross-reactivity [1]: 100.0%

Compound: O=C1OC2(c3ccccc31)c1cc(I)c(O)c(I)c1Oc1c2cc(I)c(O)c1I [Erythrosine]
- Cross-reactivity [1]: ≤0.01%
- IC50 ([1]; class symbol ND): > 13.3 µM

Compound: Nc1ccc(N=Nc2ccc(C(=O)O)cc2)c(N)c1 [Hapten1, 4-((2,4-Diaminophenyl)diazenyl)benzoic acid]
- IC50 [1]: 0.00078 µM
- Cross-reactivity [1]: 169.8%
- Cross-reactivity ([1]; listed as Hapten 1): 170%

Compound: Nc1ccc(N=Nc2ccc(CC(=O)O)cc2)c(N)c1 [Hapten2, 2-(4-((2,4-Diaminophenyl)diazenyl)phenyl)acetic acid]
- IC50 [1]: 0.00105 µM
- Cross-reactivity [1]: 127.0%
- Cross-reactivity ([1]; listed as Hapten 2): 127%

Compound: O=C1/C(=C2\Nc3ccccc3C2=O)Nc2ccccc21 [Indigo]
- Cross-reactivity [1]: ≤0.01%
- IC50 ([1]; class symbol ND): > 13.3 µM

Compound: Cc1ccc([N+](=O)[O-])cc1N [Scarlet Base G]
- Cross-reactivity [1]: ≤0.01%
- IC50 ([1]; class symbol ND): > 13.3 µM

Compound: Acid Red 94
- Cross-reactivity [1]: ≤0.01%
- IC50 ([1]; class symbol ND): > 13.3 µM

Compound: Carmine
- Cross-reactivity [1]: ≤0.01%
- IC50 ([1]; class symbol ND): > 13.3 µM

Further lines, with some results ahead:

- IC50 ([1]; class symbol ND): > 13.3 µM
Compound: Nc1nc(N)nc(N)n1 [Melamine]
- Cross-reactivity [1]: ≤0.01%

- IC50 ([1]; class symbol ND): > 13.3 µM
Compound: O=S(=O)(O)c1ccc(/N=N/c2ccc(Nc3ccccc3)cc2)cc1 [Orange yellow]
- Cross-reactivity [1]: ≤0.01%

- IC50 [1]: 1.12 µM
Compound: O=S(=O)(O)c1ccc(/N=N/c2ccc(O)c3ccccc23)cc1 [Orangeim]
- Cross-reactivity [1]: 0.1%
- Cross-reactivity ([1]; listed as orangeim): 0.12%

- IC50 ([1]; class symbol ND): > 13.3 µM
Compound: O=C1OC2(c3ccc(Cl)cc3Oc3cc(Cl)ccc32)c2ccccc21 [Reddish orange]
- Cross-reactivity [1]: ≤0.01%

- IC50 ([1]; class symbol ND): > 13.3 µM
Compound: Oc1ccc2ccccc2c1/N=N/c1ccccc1 [Sudan Red I]
- Cross-reactivity [1]: ≤0.01%

- IC50 ([1]; class symbol ND): > 13.3 µM
Compound: O=S(=O)(O)c1ccc(/N=N/c2c(O)ccc3cc(S(=O)(=O)O)ccc23)cc1 [Sunset yellow]
- Cross-reactivity [1]: ≤0.01%

- IC50 ([1]; class symbol ND): > 13.3 µM
Compound: O=C(O)C1=NN(c2ccc(S(=O)(=O)O)cc2)C(=O)C1/N=N/c1ccc(S(=O)(=O)O)cc1 (centres unmarked) [Tartrazine]
- Cross-reactivity [1]: ≤0.01%
